In the supplement of paper PMC10307832:

What was measured:
Assay in all cases: relative viability (nuclei count vs DMSO), 5 days (fraction); higher = more cells survive
[1] = compound: C1=CC=C(C(=C1)C2=CC=C(C=C2)C3=CSC4=C3C(=C(C(=O)N4)C#N)O)O + CC(=O)Nc1cccc(-n2c(=O)n(C3CC3)c(=O)c3c(Nc4ccc(I)cc4F)n(C)c(=O)c(C)c32)c1 [Trametinib] (partner 0.02 µM)
How it was run: (§1)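 Relative viability equals treated-well nuclei counts divided by vehicle-well nuclei counts. Counts came from 4× images of lung cancer cell lines grown in 1536-well plates for 5 days after pin-tool dosing on the day after seeding. Dosing used one drug alone or a fixed anchor-drug dose plus five library-drug doses (not always all listed) in √10 steps, and values are medians of duplicate plates.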

[2] = compound: C1=CC=C(C(=C1)C2=CC=C(C=C2)C3=CSC4=C3C(=C(C(=O)N4)C#N)O)O + Cc1cc(Nc2cc(N3CCN(C)CC3)nc(Sc3ccc(NC(=O)C4CC4)cc3)n2)n[nH]1 [Tozasertib] (partner 0.1 µM)
How it was run: as §1

[3] = compound: C1=CC=C(C(=C1)C2=CC=C(C=C2)C3=CSC4=C3C(=C(C(=O)N4)C#N)O)O + COc1cc2c(Oc3ccc(NC(=O)C4(C(=O)Nc5ccc(F)cc5)CC4)cc3F)ccnc2cc1OCCCN1CCOCC1 [Foretinib] (partner 0.25 µM)
How it was run: as §1

Ricolinostat + Foretinib = compound: O=C(CCCCCCNC(=O)c1cnc(N(c2ccccc2)c2ccccc2)nc1)NO [Ricolinostat] + COc1cc2c(Oc3ccc(NC(=O)C4(C(=O)Nc5ccc(F)cc5)CC4)cc3F)ccnc2cc1OCCCN1CCOCC1 [Foretinib] (partner 0.25 µM)
How it was run: as §1

Cell Line | relative viability ([1]; first compound 0.08 µM) | relative viability ([1]; first compound 0.253 µM) | relative viability ([1]; first compound 0.8 µM) | relative viability ([1]; first compound 2.53 µM) | relative viability ([1]; first compound 8 µM) | relative viability ([2]; first compound 0.08 µM) | relative viability ([2]; first compound 0.253 µM) | relative viability ([2]; first compound 0.8 µM) | relative viability ([2]; first compound 2.53 µM) | relative viability ([2]; first compound 8 µM) | relative viability ([3]; first compound 0.08 µM) | relative viability ([3]; first compound 0.253 µM) | relative viability ([3]; first compound 0.8 µM) | relative viability ([3]; first compound 2.53 µM) | relative viability ([3]; first compound 8 µM) | relative viability (Ricolinostat + Foretinib; first compound 0.08 µM) | relative viability (Ricolinostat + Foretinib; first compound 0.253 µM) | relative viability (Ricolinostat + Foretinib; first compound 0.8 µM) | relative viability (Ricolinostat + Foretinib; first compound 2.53 µM)
HCC-827 | 0.538 | 0.368 | 0.538 | 0.535 | 0.536 | 0.477 | 0.455 | 0.402 | 0.507 | 0.399 | 1.11 | 1.04 | 1.04 | 1.06 | 0.969 | 0.998 | 1.06 | 1.04 | 0.964
HOP-62 | 0.38 | 0.431 | 0.41 | 0.378 | 0.337 | 0.363 | 0.363 | 0.337 | 0.335 | 0.335 | 1.15 | 1.01 | 1.17 | 1.28 | 1 | 1 | 1.03 | 1 | 1.09
IA-LM | – | – | – | – | – | – | – | – | – | – | 0.893 | 1.35 | 1.01 | 1.41 | 1.14 | 0.959 | 1.01 | 1.09 | 0.932
LC-2-ad | 0.899 | 0.942 | 0.909 | 0.98 | 0.807 | 0.502 | 0.539 | 0.487 | 0.429 | 0.425 | 0.877 | 1.06 | 0.96 | 0.968 | 0.753 | 0.747 | 0.874 | 0.886 | 0.761
LCLC-97TM1 | 0.23 | 0.239 | 0.247 | 0.168 | 0.232 | 0.22 | 0.187 | 0.164 | 0.222 | 0.187 | 0.827 | 1.16 | 1.01 | 1.03 | 0.91 | 0.953 | 0.89 | 1 | 0.933
LCLC-103H | 0.729 | 0.618 | 0.682 | 0.632 | 0.62 | 0.481 | 0.478 | 0.592 | 0.503 | 0.457 | 0.78 | 0.735 | 0.93 | 0.698 | 0.587 | 0.688 | 0.798 | 0.787 | 0.748
LK-2 | 0.594 | 0.609 | 0.95 | 0.745 | 0.598 | – | 0.152 | 0.149 | 0.198 | 0.198 | – | 1.01 | 1.37 | 1.3 | 1.7 | 1.18 | 1.35 | 1.51 | 0.934
LOU-NH91 | 0.778 | 0.865 | 0.794 | 0.753 | 0.705 | 0.669 | 0.715 | 0.612 | 0.637 | 0.645 | 0.942 | 0.96 | 0.92 | 0.914 | 0.868 | 0.742 | 0.904 | 0.97 | 0.918
LU99A | 0.566 | 0.589 | 0.596 | 0.585 | 0.605 | 0.274 | 0.256 | 0.275 | 0.298 | 0.279 | 0.89 | 0.86 | 0.754 | 0.83 | 0.797 | 0.727 | 0.631 | 0.734 | 0.571
LXF-289 | 0.682 | 0.695 | 0.656 | 0.722 | 0.755 | 0.179 | 0.173 | 0.201 | 0.179 | 0.191 | 0.999 | 0.959 | 0.993 | 1.05 | 1.04 | 0.987 | 0.895 | 0.947 | 0.967
NCI-H23 | 0.333 | 0.321 | 0.383 | 0.379 | 0.261 | 0.395 | 0.32 | 0.373 | 0.449 | 0.316 | 0.906 | 1.04 | 1.19 | 1.05 | 0.896 | 0.999 | 0.898 | 0.97 | 1.13
NCI-H322M | 0.501 | 0.464 | 0.548 | 0.539 | 0.503 | 0.487 | 0.426 | 0.487 | 0.497 | 0.444 | 1.01 | 1.02 | 0.935 | 1.02 | 0.954 | – | 0.964 | 0.893 | 0.928
NCI-H358 | 0.13 | 0.149 | 0.131 | 0.135 | 0.14 | 0.107 | 0.112 | 0.104 | 0.0911 | 0.114 | 0.672 | 0.558 | 0.697 | 0.624 | 0.53 | 0.594 | 0.636 | 0.631 | 0.503
NCI-H441 | 0.35 | 0.443 | 0.431 | 0.496 | 0.362 | 0.801 | 0.855 | 0.815 | 0.61 | 0.768 | 1.07 | 1.15 | 1 | 1.27 | 0.976 | – | 0.878 | 0.872 | 0.921
NCI-H522 | 1 | 0.784 | 0.827 | 0.687 | 0.718 | 0.523 | 0.435 | 0.548 | 0.541 | 0.541 | – | – | – | – | – | – | – | – | –
NCI-H1299 | – | – | – | – | – | – | – | – | – | – | 1.1 | 1.07 | 1.09 | 1.11 | 1.17 | 1.05 | 1.07 | 1.07 | 1.06
NCI-H1563 | – | – | – | – | – | – | – | – | – | – | 0.972 | 0.862 | 0.947 | 0.861 | 0.927 | 0.89 | 0.874 | 0.844 | 0.793
NCI-H1623 | – | – | – | – | – | 0.408 | 0.53 | 0.397 | 0.457 | 0.436 | 0.915 | 0.971 | 0.864 | 0.889 | 0.798 | 0.795 | 0.9 | 0.825 | 0.739
NCI-H1648 | – | 0.487 | 0.61 | 0.546 | 0.353 | 0.503 | – | 0.413 | 0.6 | 0.392 | – | – | – | – | – | – | – | – | –
NCI-H1703 | – | – | – | – | – | – | – | – | – | – | 0.284 | 0.355 | 0.35 | 0.363 | 0.409 | – | 0.398 | 0.318 | 0.513
